The record followed here is EP0302445B1, “A novel hypoglycemic and growth-promoting agent” (THE PROTOR CO., priority 1987, dated 1992).

In this experiment the test system is insulinase. Briefly: insulinase inhibitory activity measurement (method of Duckworth et al.). The experiment is classed as biochemical. Conditions: fractions of commercial bacitracin, result in words. As to the method:
The desired fraction is believed to have a molecular weight of about 1400, approximately the same as bacitracin A or F. Their anti-insulinase and antibacterial activities can be assayed in conventional manner. For example, the insulinase inhibitory activity was measured according to the method of Duckworth, et al., Proc. Nat. Acad. Sci., 69, 3698-3702 (1972) and the anti-bacterial activity by the method of Patrick, et al., Antibiotics and Chemotherapy, 1, 133-137 (1951).
A 350 ml bed volume of CM-Sepharose in a packed column (2.8 x 56 cm) was equilibrated with 0.05M ammonium acetate, pH 4.5 One gram of commercial bacitracin dissolved in 50 ml of buffer was applied to the packed column. The material was eluted with 2 l of equilibrating buffer followed by 350 ml of 1M ammonium acetate pH 4.5 buffer. Five ml fractions were collected and absorbance measurements at 252, 280 and 290 nm were made. In addition, insulinase inhibitory activity measurements were made on each peak. […] The peaks were collected, lyophilized, weighed and dissolved in water at 5 mg/ml concentration for specific activity measurements. The material collected with the second buffer contained 5-10 % of the total weight of the applied material and 90 % of the total insulinase inhibitory capacity. The specific activity of this material was 10-12 times that of the starting commercial material.

On to bacitracin A, for which the insulinase inhibitory activity entry is reported as “substantially no anti-insulinase activity”. The insulinase inhibitory activity result (listed as Bacitracin A) is listed as “negligible”.

bacitracin F: the insulinase inhibitory activity result was “substantially no anti-insulinase activity”. Further, the insulinase inhibitory activity entry (listed as Bacitracin F) was “negligible”.
